Test results published in patent publication US5589485A, “Dorrigocin antitumor agents” (priority 1995, dated 1996).
In brackets after ≈: the same amount, converted by molar mass. Read-outs that look alike come from different tables or passages of the source.

What was measured:
[1] = Solubility; type: physicochemical
[2] = tested on: A. fumigatus ATCC 26430; experiment: In vitro antifungal activity, agar dilution MIC; type: cell-based; conditions: Aspergillus fumigatus
Experimental: (§1) Minimal inhibitory concentrations (MICs) were determined by an agar dilution method. The test compounds were serially diluted in MeOH and 0.2 ml portions were mixed with 20 ml of molten, cooled Sabouraud dextrose agar (Difco). Yeast cell inoculum was prepared by growing cultures on Sabouraud dextrose agar for 18 hours at 32° C. and suspending the cells in phosphate buffered saline. Filamentous fungi were grown under the same conditions for 4 days to obtain spores. The inoculum level for all cultures was adjusted to 10^4 cells using a Petroff-Hauser cell counter. The glutarimide antifungal compound cycloheximide was used as a control. Inoculated test plates were incubated at 32° C. and examined after 20 hours.

[3] = tested on: Torulopsis glabrata ATCC 15545; experiment: In vitro antifungal activity, agar dilution MIC; type: cell-based; conditions: Nakaseomyces glabratus
Experimental: as §1

[4] = tested on: Aspergillus niger ATCC 16404; experiment: In vitro antifungal activity, agar dilution MIC; type: cell-based
Experimental: as §1

[5] = tested on: A. parasiticus NRRL 13539; experiment: In vitro antifungal activity, agar dilution MIC; type: cell-based; conditions: Aspergillus parasiticus
Experimental: as §1

[6] = tested on: F. solani AARC 0353; experiment: In vitro antifungal activity, agar dilution MIC; type: cell-based; conditions: Fusarium solani
Experimental: as §1

[7] = tested on: Saccharomyces cereviseae GS1-36; experiment: In vitro antifungal activity, agar dilution MIC; type: cell-based
Experimental: as §1

[8] = tested on: Candida tropicalis NRRL-Y-112; experiment: In vitro antifungal activity, agar dilution MIC; type: cell-based
Experimental: as §1

[9] = tested on: Candida albicans ATCC 38247; experiment: In vitro antifungal activity, agar dilution MIC; type: cell-based
Experimental: as §1

[10] = tested on: A. flavus NRRL 6541; experiment: In vitro antifungal activity, agar dilution MIC; type: cell-based; conditions: Aspergillus flavus
Experimental: as §1

[11] = tested on: Fusarium moniliforme AARC 0397; experiment: In vitro antifungal activity, agar dilution MIC; type: cell-based; conditions: Fusarium verticillioides
Experimental: as §1

[12] = tested on: Candida albicans ATCC 10231; experiment: In vitro antifungal activity, agar dilution MIC; type: cell-based
Experimental: as §1

[13] = tested on: Candida albicans 579A; experiment: In vitro antifungal activity, agar dilution MIC; type: cell-based
Experimental: as §1

[14] = tested on: K-ras-transformed NIH/3T3 mouse fibroblasts; experiment: In vitro antitumor activity: transformed foci / morphology reversion; type: cell-based; conditions: for activity at 0.4 µg/mL: compound dose 0.4 μg/ml; for morphology reversion of transformed cells: microscopic examination
Experimental: Transformed cells are typically rounded when the mutant ras gene is expressed. Normal cells, on the other hand, are flat and adhere to the bottom of a tissue culture plate.
Normal and transformed NIH/3T3 cells were cultured in Dulbecco's modified Eagle medium containing 10% fetal bovine serum, and gentamicin 50 μg/ml at 37° C. in 5% CO2. Ras transformants also contained […] G418. To test the effect of Dorrigocins, 2×10^4 cells were added to 24 well microtiter plates and incubated for 24 hours at 37° C. when the cells had uniformly adhered to the microtiter tray, various concentrations of Dorrigocin A and B dissolved in DMSO, were added and the plates incubated at 37° C. for an additional 48 hours. Cellular morphology was examined microscopically and the average number of transformed foci per field was determined by counting at least 6 separate fields. These foci represent transformed cells that were unaffected by the addition of compound.

[15] = ATCC26430, Sabouraud dextrose agar, 32° C., 20 hours, read-out: MIC
[16] = ATCC15545, Sabouraud dextrose agar, 32° C., 20 hours, read-out: MIC
[17] = ATCC16404, Sabouraud dextrose agar, 32° C., 20 hours, read-out: MIC
[18] = NRRL13539, Sabouraud dextrose agar, 32° C., 20 hours, read-out: MIC
[19] = AARC0353, Sabouraud dextrose agar, 32° C., 20 hours, read-out: MIC
[20] = GS136, Sabouraud dextrose agar, 32° C., 20 hours, read-out: MIC
[21] = NRRLY112, Sabouraud dextrose agar, 32° C., 20 hours, read-out: MIC
[22] = ATCC38247, Sabouraud dextrose agar, 32° C., 20 hours, read-out: MIC
[23] = NRRL6541, Sabouraud dextrose agar, 32° C., 20 hours, read-out: MIC
[24] = AARC0397, Sabouraud dextrose agar, 32° C., 20 hours, read-out: MIC
[25] = ATCC10231, Sabouraud dextrose agar, 32° C., 20 hours, read-out: MIC
[26] = Sabouraud dextrose agar, 32° C., 20 hours, read-out: MIC
[27] = Mus musculus, NIH3T3, 48 hours, untreated NIH/3T3 K-ras = 100, read-out: Transformed foci percentage

Compound	solubility in methanol and dimethylsulfoxide [1]	MIC [2, 15]	MIC [3, 16]	MIC [4, 17]	MIC [5, 18]	MIC [6, 19]	MIC [7, 20]	MIC [8, 21]	MIC [9, 22]	MIC [10, 23]	MIC [11, 24]	MIC [12, 25]	MIC [13, 26]	dose dependence of morphology reversion ([14]; 48 hours)	activity at 0.4 µg/mL [14, 27]	morphology reversion of transformed cells ([14]; 48 hours)	also measured
COC(C=CCCC=CC(=O)O)C(O)C(C)C=C(C)C(O)C(C)C(=O)CCCC1CC(=O)NC(=O)C1 (stereo not drawn) [Dorrigocin A]	readily soluble in methanol and dimethylsulfoxide	25 µg/mL (≈ 49.2 µM)	> 100 µg/mL	25 µg/mL (≈ 49.2 µM)	> 100 µg/mL	25 µg/mL (≈ 49.2 µM)	> 100 µg/mL	> 100 µg/mL	> 100 µg/mL	> 100 µg/mL	100 µg/mL (≈ 197 µM)	> 100 µg/mL	> 100 µg/mL	dose-dependent	26%	caused transformed cells to revert to a morphology resembling that of normal cells	relative effectiveness in morphology reversion and reduction in the number of foci ([14]; Dorrigocin A compared with Dorrigocin B): more effective than Dorrigocin B; activity at 0.08 µg/mL ([14]; Mus musculus, NIH3T3, compound dose 0.08 μg/ml, 48 hours, untreated NIH/3T3 K-ras = 100, read-out: Transformed foci percentage): 76%; activity at 10 µg/mL ([14]; Mus musculus, NIH3T3, compound dose 10 μg/ml, 48 hours, untreated NIH/3T3 K-ras = 100, read-out: Transformed foci percentage): 22%
COC(C=CCCC=CC(=O)O)C(O)C(C)C(O)C(C)=CC(C)C(=O)CCCC1CC(=O)NC(=O)C1 (stereo not drawn) [Dorrigocin B]	readily soluble in methanol and dimethylsulfoxide	12.5 µg/mL (≈ 24.6 µM)	> 100 µg/mL	12.5 µg/mL (≈ 24.6 µM)	100 µg/mL (≈ 197 µM)	25 µg/mL (≈ 49.2 µM)	> 100 µg/mL	> 100 µg/mL	> 100 µg/mL	100 µg/mL (≈ 197 µM)	50 µg/mL (≈ 98.5 µM)	> 100 µg/mL	> 100 µg/mL	dose-dependent	96%	caused transformed cells to revert to a morphology resembling that of normal cells	activity at 10 µg/mL ([14]; Mus musculus, NIH3T3, 48 h, read-out: Transformed foci percentage): 7%
C[C@@H]1C[C@@H]([C@H](O)CC2CC(=O)NC(=O)C2)C(=O)[C@@H](C)C1 [Cycloheximide, cycloheximide, reference compound]																	MIC ([2]; ATCC26430, 20 h): 1.6 µg/mL (≈ 5.69 µM); MIC ([3]; ATCC15545, 20 h): 0.4 µg/mL (≈ 1.42 µM); MIC ([4]; ATCC16404, 20 h): 1.6 µg/mL (≈ 5.69 µM); MIC ([5]; NRRL13539, 20 h): 25 µg/mL (≈ 88.9 µM); MIC ([6]; AARC0353, 20 h): 0.8 µg/mL (≈ 2.84 µM); MIC ([7]; GS136, 20 h): < 0.05 µg/mL; MIC ([8]; NRRLY112, 20 h): 0.4 µg/mL (≈ 1.42 µM); MIC ([9]; ATCC38247, 20 h): > 100 µg/mL; MIC ([10]; NRRL6541, 20 h): 50 µg/mL (≈ 178 µM); MIC ([11]; AARC0397, 20 h): 0.8 µg/mL (≈ 2.84 µM); MIC ([12]; ATCC10231, 20 h): > 100 µg/mL; MIC ([13]; 20 h): > 100 µg/mL
